Square brackets hold non-standard residues; d marks the D form. Peptide text beside a SMILES is read from it. dPhe(4-CF3) = N[C@H](Cc1ccc(C(F)(F)F)cc1)C(=O)O; Nle = CCCC[C@H](N)C(=O)O
Key:
[1] = tested on: MC3R Asp158Ala mutation; conditions: MC3R mutant versus wild type; cited from earlier work
[2] = tested on: hMC1R Asp117Ala and Asp121Ala mutants; conditions: hMC1R mutants versus wild type; cited from earlier work
[3] = tested on: hMC1R Asp117Ala and Asp121Ala mutants; conditions: hMC1R mutants versus wild type; cited from earlier work; remark: listed apart in the source
[4] = target: hMC1R (Homo sapiens, UniProt Q01726); experiment: cAMP accumulation, HEK293 cells expressing hMC1R; format: cell-based; conditions: hMC1R agonist EC50 versus other melanocortin receptors
Chain of hMC1R (Q01726 whole entry): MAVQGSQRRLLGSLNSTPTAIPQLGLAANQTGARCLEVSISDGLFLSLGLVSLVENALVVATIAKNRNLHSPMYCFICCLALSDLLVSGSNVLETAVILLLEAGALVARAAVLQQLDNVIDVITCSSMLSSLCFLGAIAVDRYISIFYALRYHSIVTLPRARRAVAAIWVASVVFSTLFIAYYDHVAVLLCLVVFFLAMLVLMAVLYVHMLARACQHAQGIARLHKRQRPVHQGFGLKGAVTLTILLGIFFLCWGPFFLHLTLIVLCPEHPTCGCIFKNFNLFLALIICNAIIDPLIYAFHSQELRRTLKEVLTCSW

Compound: NDP-α-MSH
- increase for the EC50 value, Asp158Ala mutation [1]: more than 350 fold
- increase on the IC50 value for the Asp117Ala and Asp121Ala mutants [2]: around 10 fold
- increase on the EC50 value for the Asp117Ala and Asp121Ala mutants [3]: around 10 fold

Compound: CCCC[C@H](NC(=O)[C@@H](Cc1ccc(C(F)(F)F)cc1)NC(=O)[C@H](Cc1cnc[nH]1)NC(C)=O)C(=O)N[C@@H](Cc1c[nH]c2ccccc12)C(N)=O [Peptide 5, Ac-His-DPhe(4-CF3)-Nle-Trp-NH2] (Ac-H[dPhe(4-CF3)][Nle]W-NH2)
- hMC1R selectivity to other MCR subtypes [4]: at least 25 fold

Reference: PMC6003700 (European journal of medicinal chemistry, 2018)
